# Data taken from ChEMBL document CHEMBL3885861, “Open TG-GATES”.
# Species: Rattus norvegicus
# Assay: Open TG-GATES - Regimen: Single
# Assay type: toxicity, organism-based, Sprague-Dawley
# Parameters: regimen Single, gender Male, age 6 weeks
# Conditions: in vivo, po, 150 mg/kg, route gavage, dose level High; for APTT / Bas / Eos / Fbg / Hb / Ht / Lym / MCH / MCHC / MCV / Mono / Neu / PT / Plat / RBC / Ret / WBC: tissue Blood; for KIDNEY_L / KIDNEY_R / KIDNEY_TOTAL: tissue Kidney; for LIVER: tissue Liver; for A/G / ALP / ALT / AST / BUN / CRE / Ca / Cl / DBIL / GLC / IP / K / LDH / Na / PL / RALB / TBIL / TC / TG / TP / gamma-GTP: tissue Plasma
smiles,measurement,setting,value
S=C=Nc1cccc2ccccc12 [1-NAPHTHYLISOTHIOCYANATE],TERMINAL_BW,3 h,222.9 g
same,APTT,3 h,17.4 s
same,Bas,3 h,0.2%
same,Eos,3 h,0.8%
same,Fbg,3 h,243 mg/dL
same,Hb,3 h,13.9 g/dL
same,Ht,3 h,38.6%
same,Lym,3 h,77.8%
same,MCH,3 h,22.3 pg
same,MCHC,3 h,36%
same,MCV,3 h,61.8 fL
same,Mono,3 h,2.4%
same,Neu,3 h,18.2%
same,PT,3 h,11.8 s
same,Plat,3 h,124.6 x10_4/uL
same,RBC,3 h,626.2 x10_4/ul
same,Ret,3 h,8.3%
same,WBC,3 h,70.9 x10_2/uL
same,KIDNEY_L,3 h,0.9 g
same,KIDNEY_R,3 h,0.9 g
same,KIDNEY_TOTAL,3 h,1.9 g
same,LIVER,3 h,9.6 g
same,A/G,3 h,1.6
same,ALP,3 h,1056 IU/L
same,ALT,3 h,43 IU/L
same,AST,3 h,69.6 IU/L
same,BUN,3 h,9.2 mg/dL
same,CRE,3 h,0.4 mg/dL
same,Ca,3 h,10.9 mg/dL
same,Cl,3 h,103 meq/L
same,DBIL,3 h,0.2 mg/dL
same,GLC,3 h,314.6 mg/dL
same,IP,3 h,11.1 mg/dL
same,K,3 h,3.9 meq/L
same,LDH,3 h,205.6 IU/L
same,Na,3 h,141.4 meq/L
same,PL,3 h,142.2 mg/dL
same,RALB,3 h,3.5 g/dL
same,TBIL,3 h,0.2 mg/dL
same,TC,3 h,78.6 mg/dL
same,TG,3 h,77.6 mg/dL
same,TP,3 h,5.7 g/dL
same,gamma-GTP,3 h,1 IU/L
same,TERMINAL_BW,6 h,220.5 g
same,APTT,6 h,19.3 s
same,Bas,6 h,0.4%
same,Eos,6 h,0.6%
same,Fbg,6 h,247.2 mg/dL
same,Hb,6 h,14.3 g/dL
same,Ht,6 h,40.2%
same,Lym,6 h,80.6%
same,MCH,6 h,21.5 pg
same,MCHC,6 h,35.6%
same,MCV,6 h,60.3 fL
same,Mono,6 h,2.4%
same,Neu,6 h,15.4%
same,PT,6 h,12.1 s
same,Plat,6 h,127.2 x10_4/uL
same,RBC,6 h,668 x10_4/ul
same,Ret,6 h,7.4%
same,WBC,6 h,75.2 x10_2/uL
same,KIDNEY_L,6 h,0.9 g
same,KIDNEY_R,6 h,0.9 g
same,KIDNEY_TOTAL,6 h,1.9 g
same,LIVER,6 h,9 g
same,A/G,6 h,1.5
same,ALP,6 h,846.6 IU/L
same,ALT,6 h,40.4 IU/L
same,AST,6 h,71.4 IU/L
same,BUN,6 h,10 mg/dL
same,CRE,6 h,0.4 mg/dL
same,Ca,6 h,10.7 mg/dL
same,Cl,6 h,101.2 meq/L
same,DBIL,6 h,0.3 mg/dL
same,GLC,6 h,371.2 mg/dL
same,IP,6 h,10.4 mg/dL
same,K,6 h,4.4 meq/L
same,LDH,6 h,188.4 IU/L
same,Na,6 h,141 meq/L
same,PL,6 h,149.2 mg/dL
same,RALB,6 h,3.6 g/dL
same,TBIL,6 h,0.2 mg/dL
same,TC,6 h,85 mg/dL
same,TG,6 h,55.4 mg/dL
same,TP,6 h,5.9 g/dL
same,gamma-GTP,6 h,1.2 IU/L
same,TERMINAL_BW,9 h,219.4 g
same,APTT,9 h,19.1 s
same,Bas,9 h,0.4%
same,Eos,9 h,0.6%
same,Fbg,9 h,251.8 mg/dL
same,Hb,9 h,14.3 g/dL
same,Ht,9 h,40.2%
same,Lym,9 h,77.6%
same,MCH,9 h,21.9 pg
same,MCHC,9 h,35.7%
same,MCV,9 h,61.4 fL
same,Mono,9 h,3%
same,Neu,9 h,18.4%
same,PT,9 h,12.1 s
same,Plat,9 h,126.7 x10_4/uL
same,RBC,9 h,655.2 x10_4/ul
same,Ret,9 h,7.1%
same,WBC,9 h,81.9 x10_2/uL
same,KIDNEY_L,9 h,1 g
same,KIDNEY_R,9 h,0.9 g
same,KIDNEY_TOTAL,9 h,1.9 g
same,LIVER,9 h,8.7 g
same,A/G,9 h,1.5
same,ALP,9 h,968.6 IU/L
same,ALT,9 h,40 IU/L
same,AST,9 h,63.8 IU/L
same,BUN,9 h,10.2 mg/dL
same,CRE,9 h,0.4 mg/dL
same,Ca,9 h,10.8 mg/dL
same,Cl,9 h,101.8 meq/L
same,DBIL,9 h,0.3 mg/dL
same,GLC,9 h,352.4 mg/dL
same,IP,9 h,10.4 mg/dL
same,K,9 h,4.5 meq/L
same,LDH,9 h,186.8 IU/L
same,Na,9 h,140.8 meq/L
same,PL,9 h,151.4 mg/dL
same,RALB,9 h,3.6 g/dL
same,TBIL,9 h,0.2 mg/dL
same,TC,9 h,83.4 mg/dL
same,TG,9 h,35.6 mg/dL
same,TP,9 h,5.9 g/dL
same,gamma-GTP,9 h,1 IU/L
same,TERMINAL_BW,24 h,214.2 g
same,APTT,24 h,21.2 s
same,Bas,24 h,0.6%
same,Eos,24 h,0.2%
same,Fbg,24 h,392.4 mg/dL
same,Hb,24 h,14.7 g/dL
same,Ht,24 h,38.5%
same,Lym,24 h,43%
same,MCH,24 h,21.6 pg
same,MCHC,24 h,38.2%
same,MCV,24 h,56.4 fL
same,Mono,24 h,5.6%
same,Neu,24 h,49.6%
same,PT,24 h,12.8 s
same,Plat,24 h,145.8 x10_4/uL
same,RBC,24 h,682.8 x10_4/ul
same,Ret,24 h,6%
same,WBC,24 h,79 x10_2/uL
same,KIDNEY_L,24 h,0.9 g
same,KIDNEY_R,24 h,0.9 g
same,KIDNEY_TOTAL,24 h,1.9 g
same,LIVER,24 h,8.6 g
same,A/G,24 h,1.3
same,ALP,24 h,1505.2 IU/L
same,ALT,24 h,131.6 IU/L
same,AST,24 h,349.2 IU/L
same,BUN,24 h,11.2 mg/dL
same,CRE,24 h,0.5 mg/dL
same,Ca,24 h,10.4 mg/dL
same,Cl,24 h,96.8 meq/L
same,DBIL,24 h,1.5 mg/dL
same,GLC,24 h,190.8 mg/dL
same,IP,24 h,9.2 mg/dL
same,K,24 h,3.8 meq/L
same,LDH,24 h,601.8 IU/L
same,Na,24 h,142.2 meq/L
same,PL,24 h,268 mg/dL
same,RALB,24 h,3.3 g/dL
same,TBIL,24 h,1.7 mg/dL
same,TC,24 h,129.6 mg/dL
same,TG,24 h,64.2 mg/dL
same,TP,24 h,5.8 g/dL
same,gamma-GTP,24 h,7.4 IU/L
